Assay results from the NIST ThermoML archive (doi:10.1021/acs.jced.8b00399).
Numbers after ± are expanded uncertainties.

Conditions: 99.6 kPa, Liquid; for viscosity: Capillary tube (Ostwald / Ubbelohde) method; for mass density: Vibrating tube method

CNC(C)=O [N-methylacetamide]
Conditions	mass density [kg/m3]	viscosity [mPa·s]
308.15 K	946.01 ± 1.9	3.57 ± 0.044
313.15 K	941.81 ± 1.9	3.152 ± 0.039
318.15 K	937.59 ± 1.9	2.8 ± 0.035
323.15 K	933.36 ± 1.9	2.496 ± 0.031
328.15 K	929.17 ± 1.9	2.245 ± 0.028
